Active and inactive are the calls of the source. The rule behind the calls is not given here.
Experiments:
Histamine H1 receptor [1] = target: T1, Histamine H1 receptor (Homo sapiens, UniProt P35367)
Histamine H1 receptor [2] = target: T1, Histamine H1 receptor; remark: listed apart in the source
Histamine H1 receptor [3] = target: T1, Histamine H1 receptor; assay: Intrinsic activity; Tested up to 10 uM: no effects up to 1 uM
Histamine H1 receptor [4] = target: T1, Histamine H1 receptor; assay: Intrinsic activity; Tested up to 100 uM: no effects up to 10 uM
Histamine H1 receptor [5] = target: T1, Histamine H1 receptor; assay: Intrinsic activity; Tested up to 10 uM: no effects up to 1 uM
Histamine H1 receptor [6] = target: T1, Histamine H1 receptor; assay: Intrinsic activity was determined; Tested up to 100 uM: no effects up to 10 uM

T1 sequence (P35367 whole entry): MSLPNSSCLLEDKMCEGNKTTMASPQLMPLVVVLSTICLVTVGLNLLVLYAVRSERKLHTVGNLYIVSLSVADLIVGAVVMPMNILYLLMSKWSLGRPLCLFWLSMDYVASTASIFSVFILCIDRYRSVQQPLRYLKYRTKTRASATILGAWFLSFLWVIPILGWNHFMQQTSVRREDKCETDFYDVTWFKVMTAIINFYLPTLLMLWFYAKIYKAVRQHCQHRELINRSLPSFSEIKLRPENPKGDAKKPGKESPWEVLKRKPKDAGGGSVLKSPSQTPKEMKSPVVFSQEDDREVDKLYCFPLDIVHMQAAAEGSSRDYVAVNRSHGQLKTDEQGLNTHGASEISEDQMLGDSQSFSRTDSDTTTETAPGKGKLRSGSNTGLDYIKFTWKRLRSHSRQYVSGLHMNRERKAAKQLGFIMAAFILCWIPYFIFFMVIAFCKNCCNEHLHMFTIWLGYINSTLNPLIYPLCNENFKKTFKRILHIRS

SMILES | IC50 (Histamine H1 receptor [1]) [nM] | Alpha (Histamine H1 receptor [2]) | also measured
NCCCCCCCCCc1c[nH]cn1 | 2000 | -0.72 | 
NCCc1c[nH]c(CCCCC(c2ccccc2)c2ccccc2)n1 |  | -0.09 | 
NCCCCCCCCCCCCc1ccncc1 | 398 | -0.67 | 
NCCCCCCCCCCCCCCc1c[nH]cn1 |  | -0.9 | 
c1nc(CCCCCCCCN2CCCC2)c[nH]1 |  | -0.99 | 
NCCc1c[nH]c(CCC(c2ccccc2)c2ccc(Br)cc2)n1 (stereo not drawn) |  |  | Alpha (Histamine H1 receptor [3]): inactive
c1nc(CCCCCCCCCCN2CCCC2)c[nH]1 | 398 | -0.61 | 
NCCc1c[nH]c(CC(c2ccccc2)c2ccccc2)n1 |  |  | Alpha (Histamine H1 receptor [4]): inactive
CN(C)CCN(Cc1ccccc1)c1ccccn1 [TRIPELENNAMINE] | 39.8 | -0.84 | 
NCCc1c[nH]c(-c2ccc(Cl)c(Cl)c2)n1 |  | 0.5 | EC50 (Histamine H1 receptor [1]): 50100 nM
NCCc1c[nH]c(CCCC(c2ccccc2)c2ccccc2)n1 |  | 0.02 | 
NCCCCCCCCCCCc1cnc[nH]1 | 251 |  | 
NCCCCCCCCCCCCCCc1cnc[nH]1 | 2000 |  | 
NCCc1c[nH]c(-c2cccc(Cl)c2)n1 |  | 1.28 | EC50 (Histamine H1 receptor [1]): 2000 nM
NCCc1c[nH]cn1 |  | 1 | 
NCCc1cnc(CCC(c2ccccc2)c2ccccc2)[nH]1 | 794 |  | 
NCCCCCCCCCCCc1c[nH]cn1 |  | -0.61 | 
c1ccc(C(CCc2nc(CCN3CCCC3)c[nH]2)c2ccccc2)cc1 |  |  | Alpha (Histamine H1 receptor [4]): inactive
NCCCCCCCCCc1ccccn1 | 7940 | -0.92 | 
NCCc1c[nH]c(CCC(c2ccccc2)c2ccccc2)n1 |  | 0.69 | 

SMILES | IC50 (Histamine H1 receptor [1]) [nM] | Alpha (Histamine H1 receptor [2]) | also measured
NCCCCCCCCCCCCc1ccccn1 |  |  | Alpha (Histamine H1 receptor [5]): inactive
NCCCCCCCCCCc1c[nH]cn1 | 501 | -0.54 | 
NCCCCCCCCCCCCCc1c[nH]cn1 |  | -0.84 | 
NCCc1c[nH]c(-c2cccc(C(F)(F)F)c2)n1 |  | 0.91 | 
NCCCCCCCCCCCCc1cccnc1 | 1260 | -0.78 | 
NCCCCCCCCCCc1ccncc1 | 2510 | -1 | 
NCCCCCCCCCCc1cccnc1 | 2510 | -0.76 | 
c1nc(CCCCCCCCCCCCN2CCCC2)c[nH]1 | 3980 | -0.46 | 
NCCCCCCCCc1c[nH]cn1 |  | -0.54 | 
NCCCCCCCCc1cnc[nH]1 | 3160 |  | 
NCCc1ccccn1 | 1260 | 1.11 | 
NCCCCCCCCCCCCCc1cnc[nH]1 | 1260 |  | 
NCCCCCCCCCCc1ccccn1 |  |  | Alpha (Histamine H1 receptor [5]): inactive
NCCc1cscn1 |  |  | Alpha (Histamine H1 receptor [6]): inactive
NCCCCCCCCCCCCc1c[nH]cn1 | 1000 | -0.62 | 
NCCc1c[nH]c(CCC(c2ccccc2)C2CCCCC2)n1 (stereo not drawn) |  |  | Alpha (Histamine H1 receptor [3]): inactive
Cc1ccc(C(CCc2nc(CCN)c[nH]2)c2ccccc2)cc1 (stereo not drawn) |  |  | Alpha (Histamine H1 receptor [3]): inactive
c1ncc(CCCCCCCCN2CCCC2)[nH]1 | 631 |  | 
NCCc1cnc(-c2cccc(C(F)(F)F)c2)[nH]1 |  |  | EC50 (Histamine H1 receptor [1]): 1000 nM
